Source: paper PMC10931776, “Modes of Interactions with DNA/HSA Biomolecules and Comparative Cytotoxic Studies of Newly Synthesized Mononuclear Zinc(II) and Heteronuclear Platinum(II)/Zinc(II) Complexes toward Colorectal Cancer Cells” (International Journal of Molecular Sciences, 2024)

Assays:
[1] = tested on: human colorectal carcinoma (HCT116); test: MTT cytotoxicity assay, HCT116; format: cell-based; details: 48 h
Experimental: (§1) The in vitro cytotoxicity of newly synthesized mono- and heteronuclear platinum(II)/and zinc(II) complexes, featuring a 4,4′,4″-tri-tert-butyl-2,2′:6′,2″-terpyridine ligand (designated as C1–C5), was assessed using MTT assay procedures. This evaluation targeted various cell lines: mouse colorectal carcinoma (CT26), human colorectal carcinoma (HCT116 and SW480), and non-cancerous mouse mesenchymal stem cells (mMSC). These cell lines were exposed to synthesized complexes for 48 h, with concentrations ranging from 1.17 to 150 μM.
(§2) In our study, various cell lines were cultured, including mouse colorectal carcinoma (CT26), human colorectal carcinoma (HCT116 and SW480) obtained from ATCC, USA, and mouse mesenchymal stem cells (mMSC, Gibco), New York, NY, USA). These cell lines were consistently maintained in complete Dulbecco’s Modified Eagle Medium (DMEM) supplemented with 10% fetal bovine serum (FBS) (Sigma Aldrich, St. Louis, MO, USA), 100 IU/mL penicillin, and 100 μg/mL streptomycin antibiotics (Invitrogen, Carlsbad, CA, USA). The cultures were incubated at 37 °C in a humidified atmosphere of 5% carbon dioxide (CO2). […] The viability and count of the cells were determined using Trypan blue staining, ensuring the accuracy and reliability of the experimental outcomes.
(§3) The cytotoxic effects of five newly synthesized complexes, alongside cisplatin, were assessed through the MTT assay method, in line with previously established protocols. During the exponential growth phase, cells were collected from culture flasks, counted, and then seeded in 96-well culture plates at a density of 5·10^3 cells per well. Subsequent treatment involved exposing these cells to varying concentrations of the newly synthesized complexes and cisplatin (ranging from 1.17 to 150 μM) for a duration of 48 h, with fresh complete medium serving as the control. The results were quantified relative to the control (untreated cells), providing a comparative measure of cytotoxicity. Additionally, IC50 values, representing the concentration required to inhibit 50% of the cell viability, were calculated using Microsoft Office Excel 2010. Lastly, the data were presented as percentages of viable cells in accordance with the methodology outlined in the referenced study, facilitating a comprehensive understanding of the anticancer potential of these compounds.

[2] = target: T1, Human serum albumin (HSA) (Homo sapiens, UniProt P02768); test: HSA fluorescence quenching; format: binding; details: HSA 2 µM, complex 0–30 µM, PBS pH 7.4, room temperature, λex 295 nm
T1 construct: reagents in general came from Sigma-Aldrich, Acros Organics or Merck
T1 sequence (P02768 25-609): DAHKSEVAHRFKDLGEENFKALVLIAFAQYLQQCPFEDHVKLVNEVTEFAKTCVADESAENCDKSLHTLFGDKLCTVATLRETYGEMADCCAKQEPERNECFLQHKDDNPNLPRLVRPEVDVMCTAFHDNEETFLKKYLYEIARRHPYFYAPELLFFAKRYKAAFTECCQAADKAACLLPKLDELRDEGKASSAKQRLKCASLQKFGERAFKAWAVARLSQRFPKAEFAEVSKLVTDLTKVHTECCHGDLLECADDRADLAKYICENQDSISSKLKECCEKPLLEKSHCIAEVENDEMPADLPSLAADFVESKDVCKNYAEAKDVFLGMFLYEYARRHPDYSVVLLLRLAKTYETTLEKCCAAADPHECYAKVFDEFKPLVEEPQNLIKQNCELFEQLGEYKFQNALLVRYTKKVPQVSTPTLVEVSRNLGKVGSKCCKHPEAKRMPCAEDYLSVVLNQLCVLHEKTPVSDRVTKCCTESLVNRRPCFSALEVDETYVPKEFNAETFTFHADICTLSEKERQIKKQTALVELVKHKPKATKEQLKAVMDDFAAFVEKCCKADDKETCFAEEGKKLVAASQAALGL
From the text: Human serum albumin (HSA) produces a fluorescence signal when excited at 295 nm due to the tryptophan residues. This characteristic makes fluorescence spectroscopy an effective tool for studying complex interactions involving HSA. If the examined complex interacts with HSA, an increasing concentration of the complex will lead to a decrease in fluorescence, as shown in Figure 4 and Figures S14–S17. […] The Stern–Volmer equation (Equation (S2)) was used to determine the Stern–Volmer constant, Ksv, for the HSA interactions.
The binding affinity of the complexes C1–C5 to HSA has been determined through fluorescence quenching experiments. The measurements were conducted in a 0.01 M PBS with a pH of 7.4 at room temperature. The HSA concentration was kept constant at 2 μM while the concentration of complexes C1–C5 was increased from 0 to 30 μM, resulting in a significant decrease in emissions at 352 nm. Before each measurement, the system was shaken at room temperature. The fluorescence intensity was measured with the wavelength of excitation at 295 nm and recorded in the 300 to 500 nm range. The width of the excitation and emission slits (10 nm) and scan rate were maintained at a constant rate. The Stern–Volmer constants, Ksv, were determined by Equation (2).

CT26 cells = test: Annexin V FITC / Propidium Iodide apoptosis flow cytometry; format: cell-based, mouse; details: CT26, 24 h treatment
Experimental: The capacity of the C1 complex to induce apoptotic death in cancer cells was assessed using flow cytometric analysis. This analysis involved treating cells with the C1 complex and subsequently staining them with Annexin V FITC and Propidium Iodide. […] In a similar vein, in a related context, NCI-H460 cancer cells, which are a line of human large-cell lung carcinoma cells, were subjected to treatment with binuclear platinum(II) complexes. These complexes feature 4′-substituted-2,2′:6′,2″-terpyridine ligands and were administered for a duration of 24 h. Following this treatment, there was a significant increase in the proportion of apoptotic cells, correlating strongly with exposure to these specific ligands.
The evaluation of apoptosis in cells subjected to treatment was conducted employing the Annexin V and Propidium Iodide double staining assay in accordance with the methodology outlined in prior studies. This approach enabled the determination of the percentage of apoptotic cells. In further experiments, cells were fixed and permeabilized using a permeabilization buffer provided by BD Bioscience, Heidelberg, Germany. […] The analysis of these treated cells was carried out using a FACS Calibur flow cytometer (BD Biosciences, San Jose, CA, USA) and the resulting data were meticulously analyzed with FlowJo software (v10.8.2). […]

[3] = tested on: human colorectal carcinoma (SW480); test: MTT cytotoxicity assay, SW480; format: cell-based; details: 48 h
Experimental: as §1, §2, §3

[ZnCl2(terpy^t^Bu)] [C1]
Selectivity Index (IC50 mMSC/IC50), HCT 116 [1]: 0.6 | IC50 ([1]; read-out: IC50 ± SEM, HCT 116): 88.2 ± 48.5 µM | Stern–Volmer constant Ksv, HSA [2]: 1.8 ± 0.1 10^4 M^–1 | Induction of apoptotic cell death (CT26 cells; Annexin V FITC/PI): entered both early and late stages of apoptosis | Quadrant number upper left of PI / Annexin V plot (necrotic, AnnV−PI+) (CT26 cells; representative FACS plot, untreated 1.55): underwent necrosis | Selectivity Index (IC50 mMSC/IC50), SW480 [3]: 0.5 | IC50 ([3]; read-out: IC50 ± SEM, SW480): 106 ± 126 µM
